Data: US10617693B2, “Methods of treating and/or preventing actinic keratosis” (Athenex, Inc., priority 2017, dated 2020)

Tested on: subjects with AK on the face or scalp
Assay: Phase 2a study KX01-AK-002: local skin reactions (grade 0 not present to 4 worst) and adverse events, 0.5 mg KX-01 on 25 cm^2
Format: in vivo, human
Source text: An ongoing Phase 2a, open-label, multicenter, activity and safety study of KX-01 administered topically in subjects with AK on the face or scalp is described herein. […] Secondary objectives are to assess the activity of KX-01 administered topically during Days 1-57 based on reduction of AK lesion counts from baseline, assess the safety and tolerability and pharmacokinetics, and contrast the dose regimens (5-day treatment with 3-day treatment) in terms of activity and safety in subjects with AK on the face or scalp. This uncontrolled, nonrandomized trial is being conducted at 16 investigational sites in the United States. Enrollment is sequential for 2 cohorts of approximately 80 subjects each. Enrollment is closed for Cohort 1 and ongoing for Cohort 2. The two treatment cohorts are summarized below: • Cohort 1: 0.5 mg KX-01 administered topically to a contiguous treatment area of 25 cm^2 with 4-8 clinically typical AK lesions for 5 consecutive days • Cohort 2: 0.5 mg KX-01 administered topically to a contiguous treatment area of 25 cm^2 with 4-8 clinically typical AK lesions for 3 consecutive days
0.5 mg KX-01 is administered topically to an area of 25 cm^2 on the face or scalp by site staff on treatment days. […] AK lesion counts are recorded at baseline, days 8, 15, 29, and 57. […] Standardized photography of treatment area is performed at baseline, day 8 and day 57. Plasma samples are being collected at preplanned time points on days 1 and 5 for Cohort 1, and on days 1 and 3 for Cohort 2.
Absence or presence of hyperpigmentation, hypopigmentation and scarring are also assessed. Application site reactions not classified as LSRs are reported as AEs. […] LSRs and AEs are reported separately. All LSRs, pigmentation, and scarring in the treatment area will be followed to resolution or stabilization.
The range of possible composite scores is 0-24.
The Phase 2a trial described in Example 2a was completed with 84 eligible subjects enrolled in each of two cohorts: one cohort was subjected to the treatment for 5 consecutive days, and the other cohort was subjected to the treatment for 3 consecutive days. The results are described below and in FIG. 5.

O=C(Cc1ccc(-c2ccc(OCCN3CCOCC3)cc2)cn1)NCc1ccccc1 [KX-01]
66/67: Erosion/Ulceration grade 0, n/N subjects (Day 15, Cohort 1 (5-day)) | Swelling grade 0, n/N subjects (Day 29, Cohort 1 (5-day))
no Grade 4 LSRs were observed: Grade 4 LSRs (after 5 days of treatment, interim)
51/67: Flaking/Scaling grade 0, n/N subjects (Day 29, Cohort 1 (5-day))
53/67: Erythema grade 0, n/N subjects (Day 57, Cohort 1 (5-day))
safe and well tolerated: Safety and tolerability (topically once daily for 5 days)
39/67: Flaking/Scaling grade 0, n/N subjects (Day 15, Cohort 1 (5-day))
12/67: Erythema grade 1, n/N subjects (Day 57, Cohort 1 (5-day))
25/67: Erythema grade 1, n/N subjects (Day 15, Cohort 1 (5-day))
0: Vesiculation/Pustulation grade 3, n/N subjects (Day 8, Cohort 1 (5-day)) | Vesiculation/Pustulation grade 4, n/N subjects (Day 8, Cohort 1 (5-day)) | Crusting grade 2, n/N subjects (Day 15, Cohort 1 (5-day)) | Crusting grade 3, n/N subjects (Day 15, Cohort 1 (5-day)) | Crusting grade 4, n/N subjects (Day 15, Cohort 1 (5-day)) | Erosion/Ulceration grade 2, n/N subjects (Day 15, Cohort 1 (5-day)) | Erosion/Ulceration grade 3, n/N subjects (Day 15, Cohort 1 (5-day)) | Erosion/Ulceration grade 4, n/N subjects (Day 15, Cohort 1 (5-day)) | Erythema grade 4, n/N subjects (Day 15, Cohort 1 (5-day)) | Flaking/Scaling grade 4, n/N subjects (Day 15, Cohort 1 (5-day)) | Swelling grade 1, n/N subjects (Day 15, Cohort 1 (5-day)) | Swelling grade 2, n/N subjects (Day 15, Cohort 1 (5-day)) | Swelling grade 3, n/N subjects (Day 15, Cohort 1 (5-day)) | Swelling grade 4, n/N subjects (Day 15, Cohort 1 (5-day)) | Vesiculation/Pustulation grade 1, n/N subjects (Day 15, Cohort 1 (5-day)) | Vesiculation/Pustulation grade 2, n/N subjects (Day 15, Cohort 1 (5-day)) | Vesiculation/Pustulation grade 3, n/N subjects (Day 15, Cohort 1 (5-day)) | Vesiculation/Pustulation grade 4, n/N subjects (Day 15, Cohort 1 (5-day)) | Crusting grade 2, n/N subjects (Day 29, Cohort 1 (5-day)) | Crusting grade 3, n/N subjects (Day 29, Cohort 1 (5-day)) | Crusting grade 4, n/N subjects (Day 29, Cohort 1 (5-day)) | Erosion/Ulceration grade 1, n/N subjects (Day 29, Cohort 1 (5-day)) | Erosion/Ulceration grade 2, n/N subjects (Day 29, Cohort 1 (5-day)) | Erosion/Ulceration grade 3, n/N subjects (Day 29, Cohort 1 (5-day)) | Erosion/Ulceration grade 4, n/N subjects (Day 29, Cohort 1 (5-day)) | Erythema grade 3, n/N subjects (Day 29, Cohort 1 (5-day)) | Erythema grade 4, n/N subjects (Day 29, Cohort 1 (5-day)) | Flaking/Scaling grade 4, n/N subjects (Day 29, Cohort 1 (5-day)) | Swelling grade 2, n/N subjects (Day 29, Cohort 1 (5-day)) | Swelling grade 3, n/N subjects (Day 29, Cohort 1 (5-day)) | Swelling grade 4, n/N subjects (Day 29, Cohort 1 (5-day)) | Vesiculation/Pustulation grade 1, n/N subjects (Day 29, Cohort 1 (5-day)) | Vesiculation/Pustulation grade 2, n/N subjects (Day 29, Cohort 1 (5-day)) | Vesiculation/Pustulation grade 3, n/N subjects (Day 29, Cohort 1 (5-day)) | Vesiculation/Pustulation grade 4, n/N subjects (Day 29, Cohort 1 (5-day)) | Crusting grade 2, n/N subjects (Day 57, Cohort 1 (5-day)) | Crusting grade 3, n/N subjects (Day 57, Cohort 1 (5-day)) | Crusting grade 4, n/N subjects (Day 57, Cohort 1 (5-day)) | Erosion/Ulceration grade 1, n/N subjects (Day 57, Cohort 1 (5-day)) | Erosion/Ulceration grade 2, n/N subjects (Day 57, Cohort 1 (5-day)) | Erosion/Ulceration grade 3, n/N subjects (Day 57, Cohort 1 (5-day)) | Erosion/Ulceration grade 4, n/N subjects (Day 57, Cohort 1 (5-day)) | Erythema grade 3, n/N subjects (Day 57, Cohort 1 (5-day)) | Erythema grade 4, n/N subjects (Day 57, Cohort 1 (5-day)) | Flaking/Scaling grade 2, n/N subjects (Day 57, Cohort 1 (5-day)) | Flaking/Scaling grade 3, n/N subjects (Day 57, Cohort 1 (5-day)) | Flaking/Scaling grade 4, n/N subjects (Day 57, Cohort 1 (5-day)) | Swelling grade 1, n/N subjects (Day 57, Cohort 1 (5-day)) | Swelling grade 2, n/N subjects (Day 57, Cohort 1 (5-day)) | Swelling grade 3, n/N subjects (Day 57, Cohort 1 (5-day)) | Swelling grade 4, n/N subjects (Day 57, Cohort 1 (5-day)) | Vesiculation/Pustulation grade 1, n/N subjects (Day 57, Cohort 1 (5-day)) | Vesiculation/Pustulation grade 2, n/N subjects (Day 57, Cohort 1 (5-day)) | Vesiculation/Pustulation grade 3, n/N subjects (Day 57, Cohort 1 (5-day)) | Vesiculation/Pustulation grade 4, n/N subjects (Day 57, Cohort 1 (5-day))
57/67: Flaking/Scaling grade 0, n/N subjects (Day 57, Cohort 1 (5-day))
63/67: Crusting grade 0, n/N subjects (Day 15, Cohort 1 (5-day)) | Crusting grade 0, n/N subjects (Day 57, Cohort 1 (5-day))
27/67: Erythema grade 0, n/N subjects (Day 15, Cohort 1 (5-day))
10/67: Flaking/Scaling grade 1, n/N subjects (Day 57, Cohort 1 (5-day))
5/67: Flaking/Scaling grade 3, n/N subjects (Day 15, Cohort 1 (5-day))
18/67: Erythema grade 1, n/N subjects (Day 29, Cohort 1 (5-day))
13/67: Erythema grade 2, n/N subjects (Day 15, Cohort 1 (5-day)) | Flaking/Scaling grade 1, n/N subjects (Day 29, Cohort 1 (5-day))
2/67: Erythema grade 3, n/N subjects (Day 15, Cohort 1 (5-day)) | Crusting grade 1, n/N subjects (Day 29, Cohort 1 (5-day)) | Flaking/Scaling grade 2, n/N subjects (Day 29, Cohort 1 (5-day)) | Erythema grade 2, n/N subjects (Day 57, Cohort 1 (5-day))
65/67: Crusting grade 0, n/N subjects (Day 29, Cohort 1 (5-day))
4/67: Crusting grade 1, n/N subjects (Day 15, Cohort 1 (5-day)) | Erythema grade 2, n/N subjects (Day 29, Cohort 1 (5-day)) | Crusting grade 1, n/N subjects (Day 57, Cohort 1 (5-day))
9/67: Flaking/Scaling grade 2, n/N subjects (Day 15, Cohort 1 (5-day))
45/67: Erythema grade 0, n/N subjects (Day 29, Cohort 1 (5-day))
67/67: Swelling grade 0, n/N subjects (Day 15, Cohort 1 (5-day)) | Vesiculation/Pustulation grade 0, n/N subjects (Day 15, Cohort 1 (5-day)) | Erosion/Ulceration grade 0, n/N subjects (Day 29, Cohort 1 (5-day)) | Vesiculation/Pustulation grade 0, n/N subjects (Day 29, Cohort 1 (5-day)) | Erosion/Ulceration grade 0, n/N subjects (Day 57, Cohort 1 (5-day)) | Swelling grade 0, n/N subjects (Day 57, Cohort 1 (5-day)) | Vesiculation/Pustulation grade 0, n/N subjects (Day 57, Cohort 1 (5-day))
14/67: Flaking/Scaling grade 1, n/N subjects (Day 15, Cohort 1 (5-day))
1/67: Erosion/Ulceration grade 1, n/N subjects (Day 15, Cohort 1 (5-day)) | Flaking/Scaling grade 3, n/N subjects (Day 29, Cohort 1 (5-day)) | Swelling grade 1, n/N subjects (Day 29, Cohort 1 (5-day))
